{
  "source": "patent US10278979B2",
  "about": "“Therapeutic agent for intractable leukemia” (RIKEN, priority 2015, dated 2019)",
  "key": {"[1]": {"tested_on": "MLL cells (MLL-AF9 ALL cells)", "experiment": "Secondary transplantation of MLL cells remaining after treatment into neonatal NSG mice", "type": "in vivo, mouse", "details": "cells taken from treated primary recipient, FIG. 7", "text": "Finally, human leukemia cells remaining in the bone marrow were purified by sorting and transplanted to neonatal NSG mice (secondary transplantation).\nMLL cells (MLL-AF9 ALL cells) were transplanted (primary transplant) to an immunodeficient mouse and a treatment with a combination of dexamethasone and RK-20449 was applied. Thereafter, MLL cells were taken from the mouse and transplanted to another immunodeficient mouse (secondary transplantation). The results are shown in the graphs as FIG. 7. The cases treated with dexamethasone alone and RK-20449 alone were used as controls (for comparison)."}, "[2]": {"tested_on": "MLL cells (MLL-AF9 ALL cell) in the bone marrow", "experiment": "Leukemia humanized mouse (MLL-AF9), human leukemia cells in bone marrow (flow cytometry, hCD45/DAB staining)", "type": "in vivo", "details": "MLL-AF9 case; after treatment; FIG. 4", "text": "(§1) NOD. Cg-Prkdc^scid Il2rg^tmlWjl/Sz (NOD/SCID/IL2rg^null, NSG) mice were developed by subjecting a complete null mutation in the Il2rg gene locus to back cross with NOD. Cg-Prkdc^scid (NOD/SCID) lineage, in the Jackson Laboratory (Bar Harbor, Me. state, USA) (Shultz, L. D. et al., Multiple defects in innate and adaptive immunologic function in NOD/LtSz-scid mouse. J. Immunol. 154, 180-191 (1995)). The mice were raised by feeding irradiated food and acidified water in the animal facilities of RIKEN and the Jackson Laboratory in accordance with the guideline established by the Institutional Animal Committees and maintained under bacterial flora specified.\n(§2) NSG mice in the neonatal period were exposed to radiation (1.5 G) and then patient-derived MLL cells (MLL-AF9) were transplanted to the mice. After the presence of the human leukemia cells in the peripheral blood was confirmed by flow cytometry based on the presence of hCD45+CD19+, treatment of the mice (leukemia humanized mice) with dexamethasone (70 mg/kg IP daily) and/or RK-20449 (30 mg/kg IP BID, twice a day) or both was started.\nAfter the treatment, the mice were euthanized and the appearance frequency of human leukemia cells in the bone marrow was determined by flow cytometry. At the same time, one of the femur bones was fixed in PFA and […]-thin sections were prepared. […]"}, "[3]": {"tested_on": "patient-derived MLL cells (MLL-AF9)", "experiment": "Leukemia humanized mouse (MLL-AF9), human leukemia cells in peripheral blood", "type": "in vivo", "details": "MLL-AF9 cases in NSG mice; dexamethasone 70 mg/kg IP daily and/or RK-20449 30 mg/kg IP BID; FIG. 1-3", "text": "as §1, §2"}},
  "note": "“Also recorded” adds a separate entry of the source.",
  "data": [
    {"compound": "CN1CCN([C@H]2CC[C@H](n3cc(-c4ccc(Oc5ccccc5)cc4)c4c(N)ncnc43)CC2)CC1", "note": "[RK-20449, 7-[trans-4-(4-methyl-1-piperazinyl)cyclohexyl]-5-(4-phenoxyphenyl)-7H-pyrrolo[2,3-d]pyrimidin-4-amine]", "values": [
      {"measurement": "MLL cells in secondary transplantation recipient (proliferation after transplantation)", "setting": "[1]", "result": "MLL cells were present in significantly high percentages"},
      {"measurement": "medicinal effect in the bone marrow (appearance frequency of human leukemia cells, flow cytometry)", "setting": "[2]", "result": "A sufficient therapeutic effect was not obtained"},
      {"measurement": "chimerism (percentage) of human leukemia cells in the mouse peripheral blood", "setting": "[3]", "result": "not easy to eradicate MLL by single use; also recorded: impossible to expect complete cure of MLL"}
    ]}
  ]
}
